Test results published in patent US10905676B2, “Angiotensin II receptor antagonist for the prevention or treatment of systemic diseases in cats” (priority 2017, dated 2021).

Experiments:
[1] = Pharmacokinetics and absolute bioavailability after single oral or intravenous administration (Example 1)
Method: Four clinically healthy male and female domestic short hair cats (HsdCpb: CADS) with a body weight range of 2.6-4.2 kg were used in this study. The animals were randomly allocated to 2 groups, 2 animals per group.
Blood samples were drawn at 0 h (i.e. prior to treatment), 5 (after i. v. injection only), 15, 30 and 60 min as well as 2, 4, 8, 24, 72 and 96 h after each treatment. Clinical observations were also conducted at these time points. Plasma samples were sent to the analytical laboratory and analysed there using a validated method. The plasma levels measured in each animal were subjected to various pharmacokinetic calculations.

[2] = system: cats with systemic hypertension; assay: Six-month extended-use study in cats with systemic hypertension (Example 5); format: in vivo; conditions: for Group mSBP, Mean: baseline 176
Method: The primary variables for assessment in this extensive use study were adverse events and change from baseline in retinal photographs. […] No placebo group was used in this study. […] The maintenance dose was down-titrated if the mSBP was below the target range of 120-160 mmHg at any visit. In those cases, the dose was reduced to 1 mg/kg and further reduced to 0.5 mg/kg SID if mSBP remained below the target range. […] All parameters were evaluated by the Investigator for clinical significance. The parameters were then compared to baseline, and changes were summarized by treatment group as well as by subpopulation, if appropriate.

[3] = system: cats with systemic hypertension; assay: U.S. study of safety and effectiveness in cats with systemic hypertension (Example 4); format: in vivo
From the text: Of the remaining 288 cats used for the safety summary, 192 received IVP and 96 received ICP from a total of 33 sites within the United States (US) and Canada. […] Overall, both treatment groups were evenly distributed with regard to demographics and baseline characteristics including age, body weight, mSBP, retinal/fundic changes, and laboratory values. The median age of cats enrolled in this study was 14.2 years. Upon enrollment into the study, cats were orally administered telmisartan by their owners, where the owners were given the option of dosing the treatments around or on the food or via syringe. A dosing syringe was provided with demarcations in 0.1 mL increments as well as a dose and volume to be given, rounded to the nearest 0.1 mL (where the calculation was based on kg of body weight for each cat at Visit 1, and the dose was recalculated at each subsequent visit using the current body weight). […] Following Visit 2 (approximately Day 14), the dose was decreased to the 2 mg/kg once daily (SID) maintenance dose. The reduction and maintenance dosage regimen for the cats in the study is set forth in Table 6: The maintenance dose for a cat in the study could be further down-titrated if the mSBP of the cat remained below 120 mmHg from Visit 2 (at about day 14) and onward. […] At Visit 2 and at Unscheduled Visits, blood and urine samples were collected at the discretion of the Investigator. Changes in all parameters were summarized by treatment group as well as by subpopulation, if appropriate. The primary variable for statistical analysis was mSBP reduction from baseline observed at Visit 2. […] Telmisartan was successful in fulfilling both primary criteria for efficacy in cats as described below.

[4] = human patients, 160 mg daily (80 mg twice daily); cited from earlier work
[5] = cats, single i.v. 1 mg/kg, mean, 1 mg/kg
[6] = cats, single oral 1 mg/kg, mean, 1 mg/kg

CCCc1nc2c(C)cc(-c3nc4ccccc4n3C)cc2n1Cc1ccc(-c2ccccc2C(=O)O)cc1 [telmisartan, 4′-[2-n-propyl-4-methyl-6-(1-methylbenzimidazol-2-yl)-benzimidazol-1-ylmethyl]-biphenyl-2-carboxylic acid]
time until which mean plasma concentrations increased ([1]; after oral administration): 15 to 30 min
plasma concentrations at 24 h ([1]; both routes, orally and intravenously): No quantifiable plasma concentrations
clearance ([1]; both, domestic short hair (HsdCpb: CADS), plasma, iv, 1 mg/kg): 45.5 mL/min/kg
V ([1]; cats, single i.v. 1 mg/kg, mean): 8.856 L/kg
AUC 0 → ∞ [1, 5]: 384.751 ng·h/mL
t½ [1, 5]: 2.252 h
V/f ([1]; cats, single oral 1 mg/kg, mean): 20.453 L/kg
AUC 0 → ∞ [1, 6]: 150.426 ng·h/mL
t max [1, 6]: 0.438 h
t½ [1, 6]: 2.169 h
clinical signs ([1]; entire course of the study): No specific clinical signs
tolerability ([1]; in vivo, 1 mg/kg): well tolerated
rescue cases (removed due to mSBP >180 mmHg), share of end of study outcomes ([2]; 8/107 cats): 7.5%
SAEs determined to be possibly attributable to telmisartan ([2]; 11 SAEs): 10.3%
cats with Serious AEs (SAEs) ([2]; 24 cats of 107, six-month study): 22.4%
cats with Non-serious AEs (NSAEs) ([2]; 91 cats of 107, six-month study): 85.0%
cases with SBP maintained within the target range (120-180 mmHg) ([2]; 97/107 cats): 90.7%
cats scored as "better" in the IRIS blood pressure sub-staging ([2]; CKD and CKD and hyperthyroid subpopulations): 83.0% to 98.1
Mean SBP of Cat 329-454 ([2]; Visit 2 (Week 2), after 3.0 (1.5 BID) mg/kg daily): 108.3 mmHg
Mean SBP of Cat 329-454 ([2]; Visit 3 (Week 4), after 1.0 mg/kg SID): 116.0 mmHg
Mean SBP of Cat 329-454 ([2]; Visit 4 (Week 8), after 0.5 mg/kg SID): 157.7 mmHg
Mean SBP of Cat 329-454 ([2]; Visit 5 (Week 14), after 2.0 mg/kg SID): 100.0 mmHg
Mean SBP of Cat 329-454 ([2]; Visit 6 (Week 20), after 1.0 mg/kg SID): 125.3 mmHg
Mean SBP of Cat 329-454 ([2]; Visit 7 (Week 26), after 2.0 mg/kg SID): 126.0 mmHg
Group mSBP, Median ([2]; Week 4 (n = 107)): 149 mmHg
Maximum mSBP ([2]; Week 4 (n = 107)): 179 mmHg
Maximum mSBP Change from baseline ([2]; Week 4 (n = 107)): 14 ΔmmHg
Mean mSBP Change from baseline ([2]; Week 4 (n = 107)): −29 ΔmmHg
Median mSBP Change from baseline ([2]; Week 4 (n = 107)): −26 ΔmmHg
Minimum mSBP ([2]; Week 4 (n = 107)): 95 mmHg
Minimum mSBP Change from baseline ([2]; Week 4 (n = 107)): −76 ΔmmHg
Group mSBP, Mean ([2]; Week 4 (n = 107)): 148 mmHg
Group mSBP, Median ([2]; Week 8 (n = 102)): 148 mmHg
Maximum mSBP Change from baseline ([2]; Week 8 (n = 102)): 7 ΔmmHg
Mean mSBP Change from baseline ([2]; Week 8 (n = 102)): −28 ΔmmHg
Median mSBP Change from baseline ([2]; Week 8 (n = 102)): −28 ΔmmHg
Minimum mSBP ([2]; Week 8 (n = 102)): 105 mmHg
Minimum mSBP Change from baseline ([2]; Week 8 (n = 102)): −79 ΔmmHg
Group mSBP, Mean ([2]; Week 8 (n = 102)): 148 mmHg
Group mSBP, Median ([2]; Week 14 (n = 92)): 144 mmHg
Maximum mSBP Change from baseline ([2]; Week 14 (n = 92)): 25 ΔmmHg
Mean mSBP Change from baseline ([2]; Week 14 (n = 92)): −33 ΔmmHg
Median mSBP Change from baseline ([2]; Week 14 (n = 92)): −32 ΔmmHg
Minimum mSBP ([2]; Week 14 (n = 92)): 77 mmHg
Minimum mSBP Change from baseline ([2]; Week 14 (n = 92)): −115 ΔmmHg
Group mSBP, Mean ([2]; Week 14 (n = 92)): 142 mmHg
Group mSBP, Median ([2]; Week 20 (n = 81)): 148 mmHg
Maximum mSBP Change from baseline ([2]; Week 20 (n = 81)): 16 ΔmmHg
Mean mSBP Change from baseline ([2]; Week 20 (n = 81)): −30 ΔmmHg
Median mSBP Change from baseline ([2]; Week 20 (n = 81)): −28 ΔmmHg
Minimum mSBP ([2]; Week 20 (n = 81)): 89 mmHg
Minimum mSBP Change from baseline ([2]; Week 20 (n = 81)): −91 ΔmmHg
Group mSBP, Mean ([2]; Week 20 (n = 81)): 145 mmHg
Group mSBP, Median ([2]; Week 26 (n = 73)): 147 mmHg
Maximum mSBP Change from baseline ([2]; Week 26 (n = 73)): 30 ΔmmHg
Mean mSBP Change from baseline ([2]; Week 26 (n = 73)): −25 ΔmmHg
Median mSBP Change from baseline ([2]; Week 26 (n = 73)): −28 ΔmmHg
Minimum mSBP ([2]; Week 26 (n = 73)): 104 mmHg
Minimum mSBP Change from baseline ([2]; Week 26 (n = 73)): −69 ΔmmHg
Group mSBP, Mean ([2]; Week 26 (n = 73)): 150 mmHg
cats with retinal photographs improved compared to baseline ([2]; at all subsequent visits): 6.9% to 7.4
mean change in SBP from baseline (reduction) ([2]; each visit, Examples 4 and 5, FIG. 2): greater than 20 mmHg
SAE anemia and dehydration ([2]; six-month study): 6.5%
SAE anorexia, vomiting ([2]; six-month study): 5.6%
SAE weight loss ([2]; six-month study): 8.4%
cases rescued due to hypotension ([2]; two cats): 1.9%
LSM mSBP change from baseline to Visit 2 ([3]; 1.5 mg/kg BID oral, about Day 14, N 141): −23.3 ΔmmHg
arithmetic mean decrease of mSBP, baseline minus Visit 3 ([3]; Visit 3 (about Day 28), 1.5 mg/kg BID then 2 mg/kg SID): 23.9 mmHg
mean decrease of mSBP ([3]; baseline to Visit 2 (about Day 14)): 23.3 mmHg
Serious Adverse Events (SAEs) attributable ([3]; hypertensive cats, 28 days): very few
percentage of cats with retinal lesions scoring "better" ([3]; retinal photographs vs baseline): 11.5%
plasma level (Cmax±SD) [4]: about 2800±2400 ng/ml
